From the kinase profiling compilation of Christmann-Franck et al. (2016)

How the values were obtained:
Assay in all cases: KINOMEscan competition binding
Conditions in all cases: compound 10.0 µM
[1] = biological target: PIP4K2B (human) (UniProt P78356)
[2] = biological target: CAMK4 (human) (UniProt Q16566)
[3] = biological target: MAP3K4 (human) (UniProt Q9Y6R4)
[4] = biological target: PLK3 (human) (UniProt Q9H4B4)
[5] = biological target: STK35 (human) (UniProt Q8TDR2)
[6] = biological target: CSNK1E (human) (UniProt P49674)
[7] = biological target: PTK2B (human) (UniProt Q14289)
[8] = biological target: TNIK (human) (UniProt Q9UKE5)
[9] = biological target: CaMK1 (human) (UniProt Q14012)
CaMK1 (human), sequence (Q14012 whole entry, looked up): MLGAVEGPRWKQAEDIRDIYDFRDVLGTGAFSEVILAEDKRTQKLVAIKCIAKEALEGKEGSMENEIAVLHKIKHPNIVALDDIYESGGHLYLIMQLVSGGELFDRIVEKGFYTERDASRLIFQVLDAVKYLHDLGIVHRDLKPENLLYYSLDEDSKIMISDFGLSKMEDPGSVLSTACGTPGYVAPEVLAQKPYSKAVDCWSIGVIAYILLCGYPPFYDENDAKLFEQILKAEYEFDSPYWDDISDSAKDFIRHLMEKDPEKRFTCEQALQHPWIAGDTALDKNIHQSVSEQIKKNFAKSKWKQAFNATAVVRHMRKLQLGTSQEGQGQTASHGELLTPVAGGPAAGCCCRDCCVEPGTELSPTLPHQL

[10] = biological target: AURKC (human) (UniProt Q9UQB9)
[11] = biological target: ABL2 (human) (UniProt P42684)
ABL2 (human), sequence (P42684 whole entry, looked up): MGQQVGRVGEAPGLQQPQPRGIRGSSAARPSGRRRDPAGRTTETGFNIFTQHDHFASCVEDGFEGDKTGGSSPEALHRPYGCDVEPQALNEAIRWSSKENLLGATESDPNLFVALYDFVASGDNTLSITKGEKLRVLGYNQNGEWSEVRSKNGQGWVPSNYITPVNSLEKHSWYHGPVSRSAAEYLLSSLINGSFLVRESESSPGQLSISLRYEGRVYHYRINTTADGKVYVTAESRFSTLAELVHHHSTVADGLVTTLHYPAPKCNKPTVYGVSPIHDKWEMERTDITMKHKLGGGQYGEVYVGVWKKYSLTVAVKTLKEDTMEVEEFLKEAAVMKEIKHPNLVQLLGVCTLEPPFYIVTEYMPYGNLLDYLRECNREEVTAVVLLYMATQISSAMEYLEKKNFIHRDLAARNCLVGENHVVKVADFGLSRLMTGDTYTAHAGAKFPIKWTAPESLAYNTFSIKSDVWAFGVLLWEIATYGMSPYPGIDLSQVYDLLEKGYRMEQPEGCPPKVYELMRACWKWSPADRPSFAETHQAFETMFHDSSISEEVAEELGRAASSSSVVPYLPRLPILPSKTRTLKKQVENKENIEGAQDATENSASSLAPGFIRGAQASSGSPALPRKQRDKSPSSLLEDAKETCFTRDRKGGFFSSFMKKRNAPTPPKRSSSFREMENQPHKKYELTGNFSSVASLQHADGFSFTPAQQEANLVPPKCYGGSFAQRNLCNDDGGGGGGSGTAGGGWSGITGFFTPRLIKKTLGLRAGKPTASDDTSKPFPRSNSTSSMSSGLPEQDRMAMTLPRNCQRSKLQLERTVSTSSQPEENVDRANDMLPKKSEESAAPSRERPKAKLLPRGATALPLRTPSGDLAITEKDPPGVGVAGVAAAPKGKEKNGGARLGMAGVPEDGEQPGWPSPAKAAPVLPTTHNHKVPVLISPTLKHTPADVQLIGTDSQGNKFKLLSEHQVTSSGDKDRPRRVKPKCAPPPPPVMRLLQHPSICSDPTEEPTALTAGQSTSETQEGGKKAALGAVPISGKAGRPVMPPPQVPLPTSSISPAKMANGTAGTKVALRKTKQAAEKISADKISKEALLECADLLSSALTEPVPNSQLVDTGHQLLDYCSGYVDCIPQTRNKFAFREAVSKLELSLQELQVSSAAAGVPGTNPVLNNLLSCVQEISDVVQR

[12] = biological target: CSNK1G3 (human) (UniProt Q9Y6M4)
CSNK1G3 (human), sequence (Q9Y6M4 whole entry, looked up): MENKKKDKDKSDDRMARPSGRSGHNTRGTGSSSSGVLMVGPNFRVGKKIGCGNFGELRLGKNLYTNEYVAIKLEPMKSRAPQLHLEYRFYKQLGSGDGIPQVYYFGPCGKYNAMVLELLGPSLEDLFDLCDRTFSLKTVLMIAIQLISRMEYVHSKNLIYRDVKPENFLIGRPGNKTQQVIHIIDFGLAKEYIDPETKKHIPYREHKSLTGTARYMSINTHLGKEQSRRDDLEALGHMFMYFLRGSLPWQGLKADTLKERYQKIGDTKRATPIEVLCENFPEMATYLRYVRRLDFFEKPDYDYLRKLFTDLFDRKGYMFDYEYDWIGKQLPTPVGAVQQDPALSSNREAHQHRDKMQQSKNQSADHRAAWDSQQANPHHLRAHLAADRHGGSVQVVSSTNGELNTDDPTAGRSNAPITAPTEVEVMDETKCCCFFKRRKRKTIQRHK

[13] = biological target: CIT (human) (UniProt O14578)
[14] = biological target: NUAK2 (human) (UniProt Q9H093)
[15] = biological target: MAP4K5 (human) (UniProt Q9Y4K4)
[16] = system: FLT3 (human), P36888 [N841I]
[17] = system: EIF2AK4 KD2 (human), Q9P2K8 [S808G]
[18] = biological target: TNK1 (human) (UniProt Q13470)
[19] = biological target: RIOK1 (human) (UniProt Q9BRS2)
[20] = biological target: TNNI3K (human) (UniProt Q59H18)
TNNI3K (human), sequence (Q59H18 whole entry, looked up): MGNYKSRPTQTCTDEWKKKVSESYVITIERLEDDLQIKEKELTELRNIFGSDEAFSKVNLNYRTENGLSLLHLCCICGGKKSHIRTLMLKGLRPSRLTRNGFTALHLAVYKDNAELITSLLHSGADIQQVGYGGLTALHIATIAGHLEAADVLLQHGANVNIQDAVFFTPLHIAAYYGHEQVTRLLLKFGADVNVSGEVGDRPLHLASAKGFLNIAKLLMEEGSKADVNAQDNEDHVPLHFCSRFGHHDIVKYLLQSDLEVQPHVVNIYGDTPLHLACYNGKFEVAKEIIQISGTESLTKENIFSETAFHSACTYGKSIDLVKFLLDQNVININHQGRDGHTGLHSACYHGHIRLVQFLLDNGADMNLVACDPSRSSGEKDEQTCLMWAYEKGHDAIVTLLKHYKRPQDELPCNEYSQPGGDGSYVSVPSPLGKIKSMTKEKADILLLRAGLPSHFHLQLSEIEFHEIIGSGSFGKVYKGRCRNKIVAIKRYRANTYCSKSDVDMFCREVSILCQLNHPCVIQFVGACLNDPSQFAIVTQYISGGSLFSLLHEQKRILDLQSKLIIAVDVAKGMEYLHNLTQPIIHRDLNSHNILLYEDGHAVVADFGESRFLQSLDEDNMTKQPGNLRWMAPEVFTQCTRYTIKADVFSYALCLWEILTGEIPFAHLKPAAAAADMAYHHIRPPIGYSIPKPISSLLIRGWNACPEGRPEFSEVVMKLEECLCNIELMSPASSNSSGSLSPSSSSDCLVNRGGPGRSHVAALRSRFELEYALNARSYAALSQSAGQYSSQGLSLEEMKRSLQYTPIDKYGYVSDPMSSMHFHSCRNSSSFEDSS

[21] = biological target: MAP3K3 (human) (UniProt Q99759)
MAP3K3 (human), sequence (Q99759 whole entry, looked up): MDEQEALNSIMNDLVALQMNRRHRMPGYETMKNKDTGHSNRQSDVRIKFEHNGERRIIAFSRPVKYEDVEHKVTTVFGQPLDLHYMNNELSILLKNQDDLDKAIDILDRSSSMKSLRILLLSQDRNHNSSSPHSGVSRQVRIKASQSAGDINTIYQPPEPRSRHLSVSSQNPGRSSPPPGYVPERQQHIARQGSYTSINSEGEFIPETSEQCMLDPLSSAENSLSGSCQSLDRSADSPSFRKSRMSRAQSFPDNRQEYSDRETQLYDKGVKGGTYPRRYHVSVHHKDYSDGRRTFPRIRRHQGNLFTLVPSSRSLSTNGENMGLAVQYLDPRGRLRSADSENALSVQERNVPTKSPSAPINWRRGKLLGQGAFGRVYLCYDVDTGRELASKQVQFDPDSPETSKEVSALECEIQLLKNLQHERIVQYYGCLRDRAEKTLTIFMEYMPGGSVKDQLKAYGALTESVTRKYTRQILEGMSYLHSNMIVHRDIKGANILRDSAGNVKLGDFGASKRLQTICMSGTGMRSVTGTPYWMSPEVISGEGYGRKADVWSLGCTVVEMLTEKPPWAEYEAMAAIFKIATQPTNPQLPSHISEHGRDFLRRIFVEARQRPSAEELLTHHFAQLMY

[22] = biological target: BRSK2 (human) (UniProt Q8IWQ3)
[23] = biological target: NEK5 (human) (UniProt Q6P3R8)
[24] = biological target: MYLK (human) (UniProt Q15746)
[25] = biological target: MAPK11 (human) (UniProt Q15759)
[26] = biological target: BLK (human) (UniProt P51451)
[27] = biological target: CDK14 (human) (UniProt O94921)
[28] = biological target: WEE2 (human) (UniProt P0C1S8)
[29] = biological target: PDPK1 (human) (UniProt O15530)
[30] = biological target: TSSK1B (human) (UniProt Q9BXA7)
[31] = biological target: PRKCD (human) (UniProt Q05655)
[32] = biological target: EPHA7 (human) (UniProt Q15375)
EPHA7 (human), sequence (Q15375 whole entry, looked up): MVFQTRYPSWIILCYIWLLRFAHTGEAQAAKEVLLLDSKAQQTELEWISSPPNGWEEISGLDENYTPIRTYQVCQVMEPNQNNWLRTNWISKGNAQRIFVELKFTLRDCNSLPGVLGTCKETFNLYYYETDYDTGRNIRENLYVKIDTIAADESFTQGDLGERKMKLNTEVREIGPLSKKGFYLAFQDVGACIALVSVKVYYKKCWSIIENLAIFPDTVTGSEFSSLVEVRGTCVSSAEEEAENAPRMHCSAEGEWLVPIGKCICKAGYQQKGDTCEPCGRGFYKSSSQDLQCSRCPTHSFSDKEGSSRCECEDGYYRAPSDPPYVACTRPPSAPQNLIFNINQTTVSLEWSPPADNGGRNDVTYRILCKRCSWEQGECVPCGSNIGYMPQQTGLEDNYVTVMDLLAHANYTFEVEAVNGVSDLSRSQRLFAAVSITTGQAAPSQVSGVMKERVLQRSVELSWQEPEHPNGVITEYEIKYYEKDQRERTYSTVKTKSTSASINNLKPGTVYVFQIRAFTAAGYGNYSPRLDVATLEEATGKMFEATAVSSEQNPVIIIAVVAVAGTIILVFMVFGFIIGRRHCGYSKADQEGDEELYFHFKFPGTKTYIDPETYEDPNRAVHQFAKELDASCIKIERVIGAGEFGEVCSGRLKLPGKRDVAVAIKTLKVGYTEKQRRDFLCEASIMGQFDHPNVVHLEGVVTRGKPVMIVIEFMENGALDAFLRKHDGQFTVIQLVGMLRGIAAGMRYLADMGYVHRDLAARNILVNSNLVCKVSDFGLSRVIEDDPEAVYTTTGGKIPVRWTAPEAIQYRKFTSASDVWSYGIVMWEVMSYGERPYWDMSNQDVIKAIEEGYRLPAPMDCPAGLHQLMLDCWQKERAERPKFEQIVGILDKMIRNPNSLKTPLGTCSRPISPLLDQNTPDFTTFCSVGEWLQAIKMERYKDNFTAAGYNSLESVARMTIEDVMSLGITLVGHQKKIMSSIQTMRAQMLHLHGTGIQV

[33] = biological target: DAPK3 (human) (UniProt O43293)
[34] = biological target: MELK (human) (UniProt Q14680)
[35] = biological target: PTK6 (human) (UniProt Q13882)
[36] = biological target: PKN1 (human) (UniProt Q16512)
[37] = biological target: CAMK1G (human) (UniProt Q96NX5)
[38] = biological target: TLK1 (human) (UniProt Q9UKI8)
[39] = biological target: NTRK1 (human) (UniProt P04629)
[40] = biological target: ANKK1 (human) (UniProt Q8NFD2)

PIP4K2B (human), sequence (P78356 whole entry, looked up): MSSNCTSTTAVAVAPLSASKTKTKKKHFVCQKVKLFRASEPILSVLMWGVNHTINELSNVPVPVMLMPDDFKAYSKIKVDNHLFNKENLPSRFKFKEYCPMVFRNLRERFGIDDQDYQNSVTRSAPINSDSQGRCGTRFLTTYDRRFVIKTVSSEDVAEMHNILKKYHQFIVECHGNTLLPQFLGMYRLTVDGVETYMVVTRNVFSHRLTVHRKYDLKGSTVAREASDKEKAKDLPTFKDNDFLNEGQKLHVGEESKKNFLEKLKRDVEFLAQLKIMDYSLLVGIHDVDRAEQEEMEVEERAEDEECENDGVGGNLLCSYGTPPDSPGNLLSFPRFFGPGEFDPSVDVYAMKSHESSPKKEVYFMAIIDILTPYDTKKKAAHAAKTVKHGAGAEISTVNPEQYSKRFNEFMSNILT

`COc1cc(C(=O)NC2CCN(C)CC2)ccc1Nc1ncc2c(n1)N(C1CCCC1)C(C)CC(=O)N2C` (stereo not given) showed a kinase still bound, per cent of control [1] of 100%, a kinase still bound, per cent of control [2] of 100% and a kinase still bound, per cent of control [3] of 100%. It also gave a kinase still bound, per cent of control [4] of 0%, a kinase still bound, per cent of control [5] of 100% and a kinase still bound, per cent of control [6] of 100%. For the same compound, the kinase still bound, per cent of control [7] was 13%, the kinase still bound, per cent of control [8] was 100% and the kinase still bound, per cent of control [9] was 100%. The kinase still bound, per cent of control [10] was 100%, the kinase still bound, per cent of control [11] was 100% and the kinase still bound, per cent of control [12] was 100%. For the same compound, the kinase still bound, per cent of control [13] was 100%, the kinase still bound, per cent of control [14] was 100% and the kinase still bound, per cent of control [15] was 100%. The kinase still bound, per cent of control [16] was 100%, the kinase still bound, per cent of control [17] was 100% and the kinase still bound, per cent of control [18] was 100%. The kinase still bound, per cent of control [19] was 100%, the kinase still bound, per cent of control [20] was 100% and the kinase still bound, per cent of control [21] was 100%. The kinase still bound, per cent of control [22] was 100%, the kinase still bound, per cent of control [23] was 100% and the kinase still bound, per cent of control [24] was 2.8%. It also gave a kinase still bound, per cent of control [25] of 100%, a kinase still bound, per cent of control [26] of 100% and a kinase still bound, per cent of control [27] of 100%. For the same compound, the kinase still bound, per cent of control [28] was 100%, the kinase still bound, per cent of control [29] was 100% and the kinase still bound, per cent of control [30] was 100%. It also gave a kinase still bound, per cent of control [31] of 100%, a kinase still bound, per cent of control [32] of 100% and a kinase still bound, per cent of control [33] of 17%. It also gave a kinase still bound, per cent of control [34] of 100%, a kinase still bound, per cent of control [35] of 100% and a kinase still bound, per cent of control [36] of 100%. The kinase still bound, per cent of control [37] was 100%, the kinase still bound, per cent of control [38] was 100% and the kinase still bound, per cent of control [39] was 100%. It also gave a kinase still bound, per cent of control [40] of 100%.
